Test system: MV-4-11 cells
Test: Gene expression microarray analysis (Affymetrix PrimeView) and GSEA
Type: cell-based, human
Design: RFU PODN (11730768_x_at) / Fold change /veh PODN (11730768_x_at) / RFU LINC00158 (11744669_a_at) / Fold change /veh LINC00158 (11744669_a_at) / RFU DUSP10 (11751237_a_at) / Fold change /veh DUSP10 (11751237_a_at) / RFU ID3 (11757404_x_at) / Fold change /veh ID3 (11757404_x_at) / RFU PLEKHG5 (11737974_s_at) / Fold change /veh PLEKHG5 (11737974_s_at) / RFU LRRC4B (11730491_at) / Fold change /veh LRRC4B (11730491_at) / RFU GIMAP4 (11747438_a_at) / Fold change /veh GIMAP4 (11747438_a_at) / RFU KRT8 (11758183_x_at) / Fold change /veh KRT8 (11758183_x_at) / RFU CNN1 (11734310_a_at) / Fold change /veh CNN1 (11734310_a_at) / RFU VPS37D (11726825_at) / Fold change /veh VPS37D (11726825_at) / RFU C10orf10 (11716522_x_at) / Fold change /veh C10orf10 (11716522_x_at) / RFU KIR2DL2 /// KIR2DL4 /// KIR2DL5A /// KIR2DL5B /// KIR2DS1 /// KIR2DS2 /// KIR2DS3 /// KIR2DS4 /// KIR3DL3 /// KIR3DL3 /// KIR3DS1 (11738374_at) / Fold change /veh KIR2DL2 /// KIR2DL4 /// KIR2DL5A /// KIR2DL5B /// KIR2DS1 /// KIR2DS2 /// KIR2DS3 /// KIR2DS4 /// KIR3DL3 /// KIR3DL3 /// KIR3DS1 (11738374_at) / RFU C1QL1 (11718748_at) / Fold change /veh C1QL1 (11718748_at) / RFU TMPRSS4 (11747572_a_at) / Fold change /veh TMPRSS4 (11747572_a_at) / RFU HAMP (11756126_x_at) / Fold change /veh HAMP (11756126_x_at) / RFU RNFT2 (11725882_a_at) / Fold change /veh RNFT2 (11725882_a_at) / RFU NR4A2 (11747474_a_at) / Fold change /veh NR4A2 (11747474_a_at) / RFU ABCC12 (11746883_a_at) / Fold change /veh ABCC12 (11746883_a_at) / RFU TMEM136 (11760407_x_at) / Fold change /veh TMEM136 (11760407_x_at) / RFU CLDN22 /// WWC2 (11732394_at) / Fold change /veh CLDN22 /// WWC2 (11732394_at) / RFU HLA-DPB1 (11760878_x_at) / Fold change /veh HLA-DPB1 (11760878_x_at) / RFU SPINT1 (11716480_a_at) / Fold change /veh SPINT1 (11716480_a_at) / RFU GAP43 (11754022_s_at) / Fold change /veh GAP43 (11754022_s_at) / RFU A4GNT (11735810_at) / Fold change /veh A4GNT (11735810_at) / RFU PRB3 (11715151_x_at) / Fold change /veh PRB3 (11715151_x_at) / RFU TUBB4B (11761932_at) / Fold change /veh TUBB4B (11761932_at) / RFU CAPN14 (11732068_a_at) / Fold change /veh CAPN14 (11732068_a_at) / RFU TMCC2 (11721928_a_at) / Fold change /veh TMCC2 (11721928_a_at) / RFU IRGQ (11745062_a_at) / Fold change /veh IRGQ (11745062_a_at) / RFU FAM174B (11720279_a_at) / Fold change /veh FAM174B (11720279_a_at) / RFU TMPRSS4 (11748680_a_at) / Fold change /veh TMPRSS4 (11748680_a_at) / RFU FAM212B (11763350_a_at) / Fold change /veh FAM212B (11763350_a_at) / RFU PLEKHG5 (11743358_a_at) / Fold change /veh PLEKHG5 (11743358_a_at) / RFU ZSCAN30 (11745921_a_at) / Fold change /veh ZSCAN30 (11745921_a_at) / RFU CMKLR1 (11741424_a_at) / Fold change /veh CMKLR1 (11741424_a_at) / RFU LOC101060620 /// MAPK8IP1 (11723275_at) / Fold change /veh LOC101060620 /// MAPK8IP1 (11723275_at) / RFU SPTSSB (11747773_x_at) / Fold change /veh SPTSSB (11747773_x_at) / RFU PRSS12 (11739890_at) / Fold change /veh PRSS12 (11739890_at) / RFU BIN1 (11741810_x_at) / Fold change /veh BIN1 (11741810_x_at) / RFU WNT11 (11732464_a_at) / Fold change /veh WNT11 (11732464_a_at) / RFU C10orf10 (11716521_a_at) / Fold change /veh C10orf10 (11716521_a_at) / RFU C5orf56 (11738089_at) / Fold change /veh C5orf56 (11738089_at) / RFU CYB561 (11721691_x_at) / Fold change /veh CYB561 (11721691_x_at) / RFU ANKRD19P (11752326_a_at) / Fold change /veh ANKRD19P (11752326_a_at) / RFU OR2T12 /// OR2T33 /// OR2T8 (11738714_s_at) / Fold change /veh OR2T12 /// OR2T33 /// OR2T8 (11738714_s_at) / RFU VCAN (11748164_a_at) / Fold change /veh VCAN (11748164_a_at) / RFU JSRP1 (11732532_at) / Fold change /veh JSRP1 (11732532_at) / RFU KRTAP10-11 (11738290_x_at) / Fold change /veh KRTAP10-11 (11738290_x_at) / RFU MYO3A (11730013_a_at) / Fold change /veh MYO3A (11730013_a_at) / RFU EBF3 (11725865_a_at) / Fold change /veh EBF3 (11725865_a_at) / RFU CAMK2N1 (11719241_x_at) / Fold change /veh CAMK2N1 (11719241_x_at) / RFU C5orf56 (11738088_a_at) / Fold change /veh C5orf56 (11738088_a_at) / RFU OLFML3 (11715873_a_at) / Fold change /veh OLFML3 (11715873_a_at) / RFU LOC100653217 /// NTM (11731650_a_at) / Fold change /veh LOC100653217 /// NTM (11731650_a_at) / RFU MAPK11 (11762145_a_at) / Fold change /veh MAPK11 (11762145_a_at) / RFU FIZ1 (11724087_x_at) / Fold change /veh FIZ1 (11724087_x_at) / RFU OASL (11726364_x_at) / Fold change /veh OASL (11726364_x_at) / RFU SOX15 (11748057_x_at) / Fold change /veh SOX15 (11748057_x_at) / RFU CD79A (11719716_a_at) / Fold change /veh CD79A (11719716_a_at) / RFU HIST1H1D (11736915_at) / Fold change /veh HIST1H1D (11736915_at) / RFU CASKIN2 (11723855_a_at) / Fold change /veh CASKIN2 (11723855_a_at) / RFU LOC730098 (11760151_x_at) / Fold change /veh LOC730098 (11760151_x_at) / RFU OR4N2 (11742367_at) / Fold change /veh OR4N2 (11742367_at) / RFU PRRT2 (11749266_a_at) / Fold change /veh PRRT2 (11749266_a_at) / RFU SNX32 (11753110_a_at) / Fold change /veh SNX32 (11753110_a_at) / RFU CDHR5 (11726645_a_at) / Fold change /veh CDHR5 (11726645_a_at) / RFU RCAN1 (11760418_a_at) / Fold change /veh RCAN1 (11760418_a_at) / RFU FAM167A (11723789_a_at) / Fold change /veh FAM167A (11723789_a_at) / RFU FAM26E (11764081_at) / Fold change /veh FAM26E (11764081_at) / RFU ISYNA1 (11749810_s_at) / Fold change /veh ISYNA1 (11749810_s_at) / RFU ACY1 (11761880_at) / Fold change /veh ACY1 (11761880_at) / RFU 11764098_at / Fold change /veh 11764098_at / RFU SAMD14 (11745864_x_at) / Fold change /veh SAMD14 (11745864_x_at) / RFU NPB (11741838_a_at) / Fold change /veh NPB (11741838_a_at) / RFU TMPRSS6 (11731388_a_at) / Fold change /veh TMPRSS6 (11731388_a_at) / RFU KRTAP10-2 (11738614_at) / Fold change /veh KRTAP10-2 (11738614_at) / RFU ARHGAP8 /// PRR5-ARHGAP8 (11727945_x_at) / Fold change /veh ARHGAP8 /// PRR5-ARHGAP8 (11727945_x_at) / RFU KRTAP5-7 /// NADSYN1 (11734609_at) / Fold change /veh KRTAP5-7 /// NADSYN1 (11734609_at) / RFU RASL12 (11751679_a_at) / Fold change /veh RASL12 (11751679_a_at) / RFU CDKN2B (11736163_a_at) / Fold change /veh CDKN2B (11736163_a_at) / RFU PRF1 (11729649_at) / Fold change /veh PRF1 (11729649_at) / RFU, ZNF638 /// ZNF638-IT1 / Fold change vs veh, ZNF638 /// ZNF638-IT1 / RFU, PANK3 / Fold change vs veh, PANK3 / RFU, SH3YL1 / Fold change vs veh, SH3YL1 / RFU, ZEB2 / Fold change vs veh, ZEB2 / RFU, NRIP1 / Fold change vs veh, NRIP1 / RFU, PTTG1IP / Fold change vs veh, PTTG1IP / RFU, CAPN2 / Fold change vs veh, CAPN2 / RFU, MED14 / Fold change vs veh, MED14 / RFU, SNORA58 / Fold change vs veh, SNORA58 / RFU, C1orf63 / Fold change vs veh, C1orf63 / RFU, LRRFIP1 / Fold change vs veh, LRRFIP1 / RFU, NDUFAF7 / Fold change vs veh, NDUFAF7 / RFU, SLC12A2 / Fold change vs veh, SLC12A2 / RFU, IBTK / Fold change vs veh, IBTK / RFU, ESF1 / Fold change vs veh, ESF1 / Fold change vs veh, TMEM50B / RFU, TAOK1 / Fold change vs veh, TAOK1 / RFU, ACBD3 / Fold change vs veh, ACBD3 / RFU, TMA16 / Fold change vs veh, TMA16 / RFU, RWDD3 / Fold change vs veh, RWDD3 / RFU, BCAT1 / Fold change vs veh, BCAT1 / RFU, EDEM3 / Fold change vs veh, EDEM3 / RFU, TMEM33 / Fold change vs veh, TMEM33 / RFU, WDR75 / Fold change vs veh, WDR75 / RFU, AHCTF1 / Fold change vs veh, AHCTF1 / RFU, TFRC / Fold change vs veh, TFRC / RFU, ZDHHC17 / Fold change vs veh, ZDHHC17 / RFU, NOM1 / Fold change vs veh, NOM1 / RFU, ARL8B / Fold change vs veh, ARL8B / RFU, ZBTB11 / Fold change vs veh, ZBTB11 / RFU, TAMM41 / Fold change vs veh, TAMM41 / RFU, KIAA1704 /// LOC100996395 / Fold change vs veh, KIAA1704 /// LOC100996395 / RFU, ING1 / Fold change vs veh, ING1 / RFU, TRMT61B / Fold change vs veh, TRMT61B / RFU, FUBP3 / Fold change vs veh, FUBP3 / RFU, TP53 / Fold change vs veh, TP53 / RFU, TNKS2 / Fold change vs veh, TNKS2 / RFU, ZFP14 / Fold change vs veh, ZFP14 / RFU, ACTR2 / Fold change vs veh, ACTR2 / RFU, PPP3R1 / Fold change vs veh, PPP3R1 / RFU, PIK3R1 / Fold change vs veh, PIK3R1 / RFU, HNRNPA1 / Fold change vs veh, HNRNPA1 / RFU, RNF170 / Fold change vs veh, RNF170 / RFU, ZNF28 / Fold change vs veh, ZNF28 / RFU, RNGTT / Fold change vs veh, RNGTT / RFU, OGT / Fold change vs veh, OGT / RFU, BRD1 / Fold change vs veh, BRD1 / RFU, MARS / Fold change vs veh, MARS / RFU, ZNF655 / Fold change vs veh, ZNF655 / RFU, FAHD1 / Fold change vs veh, FAHD1 / RFU, BDP1 / Fold change vs veh, BDP1 / RFU, LRRCC1 / Fold change vs veh, LRRCC1 / RFU, ARID1A / Fold change vs veh, ARID1A / RFU, ZNF146 / Fold change vs veh, ZNF146 / RFU, ZNF330 / Fold change vs veh, ZNF330 / RFU, GPN3 / Fold change vs veh, GPN3 / RFU, C9orf123 / Fold change vs veh, C9orf123 / RFU, N4BP2L2 / Fold change vs veh, N4BP2L2 / RFU, ARFIP1 / Fold change vs veh, ARFIP1 / RFU, FAM179B / Fold change vs veh, FAM179B / RFU, BCL10 / Fold change vs veh, BCL10 / RFU, UHRF1BP1L / Fold change vs veh, UHRF1BP1L / RFU, BET1 / Fold change vs veh, BET1 / RFU, CNOT2 / Fold change vs veh, CNOT2 / RFU, ZNF268 / Fold change vs veh, ZNF268 / Fold change vs veh, ZNF507 / RFU, DGCR2 / Fold change vs veh, DGCR2 / RFU, WDSUB1 / Fold change vs veh, WDSUB1 / Fold change vs veh, HSP90B1 /// MIR3652 / RFU, ADSS / Fold change vs veh, ADSS / RFU, GK / Fold change vs veh, GK / RFU, ZNF148 / Fold change vs veh, ZNF148 / RFU, TAF9 / Fold change vs veh, TAF9 / RFU, SLC1A5 / Fold change vs veh, SLC1A5 / RFU, SLMO2 / Fold change vs veh, SLMO2 / RFU, ABCC4 / Fold change vs veh, ABCC4 / RFU, LOC101060439 /// RAP1B / Fold change vs veh, LOC101060439 /// RAP1B / RFU, RFX7 / Fold change vs veh, RFX7 / RFU, GTPBP10 / Fold change vs veh, GTPBP10 / RFU, CNEP1R1 / Fold change vs veh, CNEP1R1 / RFU, BIVM-ERCC5 /// ERCC5 / Fold change vs veh, BIVM-ERCC5 /// ERCC5 / RFU, ILF3 / Fold change vs veh, ILF3 / RFU 11762660_at / Fold change /veh 11762660_at / RFU VCAN (11757783_s_at) / Fold change /veh VCAN (11757783_s_at) / RFU DDX43 (11728927_at) / Fold change /veh DDX43 (11728927_at) / RFU KRT8 (11758188_x_at) / Fold change /veh KRT8 (11758188_x_at) / RFU NKD1 (11759106_at) / Fold change /veh NKD1 (11759106_at) / RFU SRD5A1 (11742802_a_at) / Fold change /veh SRD5A1 (11742802_a_at) / RFU TPSAB1 /// TPSB2 (11721975_s_at) / Fold change /veh TPSAB1 /// TPSB2 (11721975_s_at) / RFU GSTM3 (11746129_a_at) / Fold change /veh GSTM3 (11746129_a_at) / RFU IL23R (11737362_x_at) / Fold change /veh IL23R (11737362_x_at) / RFU TMEM51 (11727254_a_at) / Fold change /veh TMEM51 (11727254_a_at) / RFU PIWIL2 (11732686_x_at) / Fold change /veh PIWIL2 (11732686_x_at) / RFU ORM1 (11744905_x_at) / Fold change /veh ORM1 (11744905_x_at) / RFU CCDC152 (11743942_at) / Fold change /veh CCDC152 (11743942_at) / RFU ECM1 (11717891_a_at) / Fold change /veh ECM1 (11717891_a_at) / RFU IL23R (11748794_a_at) / Fold change /veh IL23R (11748794_a_at) / RFU TNFAIP8L3 (11732012_x_at) / Fold change /veh TNFAIP8L3 (11732012_x_at) / RFU MBOAT4 (11741988_at) / Fold change /veh MBOAT4 (11741988_at) / RFU 11764193_at / Fold change /veh 11764193_at / RFU TMEM53 (11763286_at) / Fold change /veh TMEM53 (11763286_at) / RFU MAGEB2 (11727129_at) / Fold change /veh MAGEB2 (11727129_at) / RFU TMEM200A (11744735_a_at) / Fold change /veh TMEM200A (11744735_a_at) / RFU CCDC152 (11751479_a_at) / Fold change /veh CCDC152 (11751479_a_at) / RFU FAM211A (11726209_a_at) / Fold change /veh FAM211A (11726209_a_at) / RFU RGS16 (11746705_a_at) / Fold change /veh RGS16 (11746705_a_at) / RFU VCAN (11755009_s_at) / Fold change /veh VCAN (11755009_s_at) / RFU RHOB (11743442_s_at) / Fold change /veh RHOB (11743442_s_at) / RFU RGS16 (11720943_a_at) / Fold change /veh RGS16 (11720943_a_at) / RFU RGS16 (11720944_at) / Fold change /veh RGS16 (11720944_at) / RFU, VPS4B / Fold change vs veh, VPS4B / RFU, CREB1 / Fold change vs veh, CREB1 / RFU, DNAJC13 / Fold change vs veh, DNAJC13 / RFU, GNAQ / Fold change vs veh, GNAQ / RFU, CDK5R1 / Fold change vs veh, CDK5R1 / RFU, ZRANB3 / Fold change vs veh, ZRANB3 / RFU, CUL4A / Fold change vs veh, CUL4A / RFU, CCNY / Fold change vs veh, CCNY / RFU, UFL1 / Fold change vs veh, UFL1 / RFU, COG3 / Fold change vs veh, COG3 / RFU, DIAPH2 / Fold change vs veh, DIAPH2 / RFU, SKA2 / Fold change vs veh, SKA2 / RFU, AFF3 / Fold change vs veh, AFF3 / RFU, LMF1 / Fold change vs veh, LMF1 / RFU, IPO11 / Fold change vs veh, IPO11 / RFU, DFFB / Fold change vs veh, DFFB / RFU, FOXP1 / Fold change vs veh, FOXP1 / RFU, CARD8 / Fold change vs veh, CARD8 / RFU, STRN3 / Fold change vs veh, STRN3 / RFU, ADK / Fold change vs veh, ADK / RFU, RASSF2 / Fold change vs veh, RASSF2 / RFU, WIPF1 / Fold change vs veh, WIPF1 / RFU, LARP1B / Fold change vs veh, LARP1B / RFU, RASA1 / Fold change vs veh, RASA1 / RFU, RB1 / Fold change vs veh, RB1 / RFU, PPFIA1 / Fold change vs veh, PPFIA1 / RFU, MAT2A / Fold change vs veh, MAT2A / RFU, CCT5 / Fold change vs veh, CCT5 / RFU, WDR92 / Fold change vs veh, WDR92 / RFU, CUX1 / Fold change vs veh, CUX1 / RFU, TTC7A / Fold change vs veh, TTC7A / RFU, TMEM135 / Fold change vs veh, TMEM135 / RFU, DEPTOR / Fold change vs veh, DEPTOR / RFU, CPM / Fold change vs veh, CPM / RFU, DNAJB6 / Fold change vs veh, DNAJB6 / RFU, CACNA2D3 / Fold change vs veh, CACNA2D3 / RFU, DTX4 / Fold change vs veh, DTX4 / RFU, TFCP2 / Fold change vs veh, TFCP2 / RFU, GMCL1 /// GMCL1P1 / Fold change vs veh, GMCL1 /// GMCL1P1 / RFU, AEBP2 / Fold change vs veh, AEBP2 / RFU, SNHG1 /// SNORD22 /// SNORD25 /// SNORD26 /// SNORD27 /// SNORD28 /// SNORD29 /// SNORD31 / Fold change vs veh, SNHG1 /// SNORD22 /// SNORD25 /// SNORD26 /// SNORD27 /// SNORD28 /// SNORD29 /// SNORD31 / Fold change (Aza/veh), C12orf56 (ProbeSet 11735607_a_at) / Fold change (ACY-1035/veh), C12orf56 (ProbeSet 11735607_a_at) / Fold change (Aza/veh), FGFR1OP (ProbeSet 11751329_s_at) / Fold change (ACY-1035/veh), FGFR1OP (ProbeSet 11751329_s_at) / Fold change (Aza/veh), VPS36 (ProbeSet 11739960_a_at) / Fold change (ACY-1035/veh), VPS36 (ProbeSet 11739960_a_at) / RFU SYPL1 (11715823_x_at) / Fold change /veh SYPL1 (11715823_x_at) / RFU IGFBP7 (11715501_s_at) / Fold change /veh IGFBP7 (11715501_s_at) / RFU REEP3 (11722064_at) / Fold change /veh REEP3 (11722064_at) / RFU IGLL1 (11728026_x_at) / Fold change /veh IGLL1 (11728026_x_at): dose or concentration left out as unconfirmed
Conditions: MV-4-11 cells, 48 hours

For `Nc1ccc(-c2cccs2)cc1NC(=O)c1ccc2c(c1)cc(C1CC1)n2CCN1CCOCC1` [ACY-1035], the “Fold change /veh 11764098_at” value was 1.17.
